Assay results reported in US12357586B2, “Use of the phytocannabinoid cannabidiol (CBD) in combination with a standard anti-epileptic drug (SAED) in the treatment of epilepsy” (JAZZ PHARMACEUTICALS RESEARCH UK LIMITED, priority 2011, dated 2025).

What was measured:
[1] = test system: pilocarpine-induced seizures; test: pilocarpine model of (temporal lobe) epilepsy; type: in vivo
Procedure: Isolated CBD was injected intra-peritoneally (IP) in the standard vehicle (1:1:18 ethanol:Cremophor:0.9% w/v NaCl) at doses of 50, 100 and 200 mg/kg alongside animals that received vehicle alone at a matched volume. 15 minutes later methylscopolamine (1 mg/kg; to reduce peripheral muscarinic effects of pilocarpine) was administered followed, 45 minutes later by pilocarpine (380 mg/kg, IP) administration.

grand mal patients = details: 200-300 mg of cannabidiol plus regular medication; cited from earlier work
epileptic patients = details: 200-300 mg of cannabidiol per day in addition to standard antiepileptic drugs; 12 epileptic patients; cited from earlier work
[2] = test system: seizure frequency in a single patient; details: 900-1200 mg of cannabidiol a day for 10 months; cited from earlier work
[3] = test system: institutionalized children not responding to standard treatment; details: 5 institutionalized children not responding to phenobarbital and phenoytin; cited from earlier work
[4] = CBD 100 mg/kg, Phenobarbitol 0 mg/kg
[5] = significance of effect, pilocarpine model
[6] = CBD 0 mg/kg, Phenobarbitol 10 mg/kg
[7] = CBD 0 mg/kg, Phenobarbitol 20 mg/kg
[8] = CBD 0 mg/kg, Phenobarbitol 40 mg/kg

C=C(C)[C@@H]1CCC(C)=C[C@H]1c1c(O)cc(CCCCC)cc1O [CBD, cannabidiol]
Onset latency [1, 4]: 500 s
Seizure free (%) [1, 4]: 0%
ALL EPISODES Mean severity of episodes [1, 5]: * (* = p < 0.05)
EPISODE 2 Severity [1, 5]: * (* = p < 0.05)
patients who remained unchanged (grand mal patients): 1
patients who showed complete improvement (grand mal patients): 3
patients who showed minor improvement (grand mal patients): 2
patients who showed partial improvement (grand mal patients): 2
unwanted effect (grand mal patients): mild sedation
improvement in seizure frequency (epileptic patients): no significant improvement in seizure frequency
seizure frequency [2]: markedly reduced

CCC1(c2ccccc2)C(=O)NC(=O)NC1=O [Phenobarbitol, phenobarbital]
Onset latency [1, 6]: 800 s
Seizure free (%) [1, 6]: 25%
Onset latency [1, 7]: 900 s
Seizure free (%) [1, 7]: 55%
Onset latency [1, 8]: 1800 s
Seizure free (%) [1, 8]: 75%

CCCCCc1cc(O)c2c(c1)OC(C)(C)[C@@H]1CCC(C)=C[C@@H]21 [THC, tetrahydrocannabinol]
seizure outcome [3]: One became entirely free of seizures, one became almost completely free of seizures, and the other three did no worse than before

CCCC(CCC)C(=O)O [Valproate, valproate]
ALL EPISODES Mean duration of episodes [1, 5]: * (* = p < 0.05)
ALL EPISODES Mean number of episodes [1, 5]: ** (** = p < 0.01)
ALL EPISODES Mean severity of episodes [1, 5]: ** (** = p < 0.01)
ALL EPISODES Mean time spent in episodes [1, 5]: * (* = p < 0.05)
ALL EPISODES Percentage episode free [1, 5]: ** (** = p < 0.01)
ALL EPISODES Percentage ≥3 episodes [1, 5]: # (# = p < 0.01)
EPISODE 1 Latency [1, 5]: ** (** = p < 0.01)
EPISODE 1 Severity [1, 5]: * (* = p < 0.05)
EPISODE 2 Duration [1, 5]: # (# = p < 0.01)
EPISODE 2 Latency [1, 5]: # (# = p < 0.01)
